Assays:
HMGB1 A box [1] = molecular target: T1, HMGB1 A box (Homo sapiens, UniProt P09429); test: gel-based competition with IAA-yne labelling, click TAMRA fluorescence; assay type: binding; conditions: covalent; blocks IAA-yne labelling of Cys; PBS
T1 construct: A box domain, residues 1-89, N-terminal 6-His tag, modified pET-24d, E. coli BL21
T1 sequence (P09429 1-89): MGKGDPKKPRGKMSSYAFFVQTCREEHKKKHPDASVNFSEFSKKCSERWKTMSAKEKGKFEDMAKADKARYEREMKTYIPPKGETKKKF

[2] = molecular target: T2, HMGB1 (primary rat cortical neurons) (Rattus norvegicus, UniProt P63159); test: CETSA in neuron lysate, Western blot; competition with cel-p pull-down; assay type: biochemical; conditions: 20 μM cel, 1 h, 37-82 °C (CETSA); 8 × cel in pull-down
T2 construct: endogenous full-length protein in living primary cortical neurons or their lysate
T2 sequence (P63159 2-215): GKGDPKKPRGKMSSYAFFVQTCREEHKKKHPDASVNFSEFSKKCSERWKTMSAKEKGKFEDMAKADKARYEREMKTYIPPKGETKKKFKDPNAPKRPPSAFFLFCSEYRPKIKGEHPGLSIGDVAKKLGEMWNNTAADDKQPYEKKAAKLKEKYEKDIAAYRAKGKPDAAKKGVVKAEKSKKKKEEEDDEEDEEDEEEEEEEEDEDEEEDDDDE

[3] = molecular target: T3, recombinant human HMGB1 protein (full-length) (Homo sapiens, UniProt P09429); test: gel-based competition with IAA-yne labelling, click TAMRA fluorescence; assay type: binding; conditions: covalent; Cys 106 of disulfide form or Cys 23, 45, 106 of fully reduced form, also other sites; PBS
T3 construct: full-length recombinant protein, commercial (Abcam); disulfide form or DTT-reduced
T3 sequence (P09429 1-215): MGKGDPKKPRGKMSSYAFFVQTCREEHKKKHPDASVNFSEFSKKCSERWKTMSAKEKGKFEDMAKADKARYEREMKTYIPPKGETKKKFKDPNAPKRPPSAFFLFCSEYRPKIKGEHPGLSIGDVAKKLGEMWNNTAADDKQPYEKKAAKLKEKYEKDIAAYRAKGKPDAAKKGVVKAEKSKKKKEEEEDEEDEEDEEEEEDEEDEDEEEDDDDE

HMGB1 B box [4] = molecular target: T4, HMGB1 B box (Homo sapiens, UniProt P09429); test: as above; assay type: binding; conditions: covalent; blocks IAA-yne labelling of Cys; PBS
T4 construct: B box domain, residues 90-175, N-terminal 6-His tag, modified pET-24d, E. coli BL21
T4 sequence (P09429 90-175): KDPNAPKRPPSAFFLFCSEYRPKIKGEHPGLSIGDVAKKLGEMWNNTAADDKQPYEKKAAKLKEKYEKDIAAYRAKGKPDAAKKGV

HMGB1 A box [5] = molecular target: T1, HMGB1 A box; test: in-gel fluorescence labelling by probe, click TAMRA azide; assay type: binding; conditions: labelled compound; labelling in presence of IAA; PBS
[6] = molecular target: T2, HMGB1 (primary rat cortical neurons); test: probe pull-down, TMT LC-MS/MS and Western blot; assay type: cell-based; conditions: labelled compound; 4 μM cel-p, 4 h, living neurons, with or without OGD
HMGB1 B box [7] = molecular target: T4, HMGB1 B box; test: in-gel fluorescence labelling by probe, click TAMRA azide; assay type: binding; conditions: labelled compound; labelling in presence of IAA; PBS

| Structure (SMILES) | gel-based competition with IAA-yne labelling, click TAMRA fluorescence (HMGB1 A box [1]) | CETSA in neuron lysate, Western blot; competition with cel-p pull-down [2] | gel-based competition with IAA-yne labelling, click TAMRA fluorescence [3] | gel-based competition with IAA-yne labelling, click TAMRA fluorescence (HMGB1 B box [4]) | in-gel fluorescence labelling by probe, click TAMRA azide (HMGB1 A box [5]) | probe pull-down, TMT LC-MS/MS and Western blot [6] | in-gel fluorescence labelling by probe, click TAMRA azide (HMGB1 B box [7]) |
| --- | --- | --- | --- | --- | --- | --- | --- |
| CC1=C(O)C(=O)C=C2C1=CC=C1[C@@]2(C)CC[C@@]2(C)[C@@H]3C[C@](C)(C(=O)O)CC[C@]3(C)CC[C@]12C [cel, celastrol] | Cel also almost completely blocked the binding of IAA-yne to the Cys group | The CETSA results also proved the direct binding of cel and HMGB1 | Cel almost completely competed for the binding of IAA-yne to HMGB1 or DTT reduced HMGB1 | Cel also almost completely blocked the binding of IAA-yne to the Cys group |  |  |  |
| C#CCNC(=O)[C@]1(C)CC[C@]2(C)CC[C@]3(C)C4=CC=C5C(=CC(=O)C(O)=C5C)[C@]4(C)CC[C@@]3(C)[C@@H]2C1 [cel-p] |  |  |  |  | The binding of cel-p to the A and B boxes could not be blocked by IAA | could completely compete the binding of cel-p to HMGB1 | The binding of cel-p to the A and B boxes could not be blocked by IAA |

Reference: publication PMC8353826, “Celastrol exerts a neuroprotective effect by directly binding to HMGB1 protein in cerebral ischemia–reperfusion” (Journal of Neuroinflammation, 2021)
